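Each compound was tested at five concentrations against cells in 96-well plates for 48 hours. Definition used: TGI = concentration required for complete inhibition of growth.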
What was measured:
Experiment in all cases: NCI tumour cell line growth inhibition, 48 h
A498 renal = test system: A498 renal
CAKI-1 renal = test system: CAKI-1 renal
U251 CNS = test system: U251 CNS
MDA-MB-231 breast = test system: MDA-MB-231 breast
786-0 renal = test system: 786-0 renal
OVCAR-8 ovarian = test system: OVCAR-8 ovarian
MCF7 breast = test system: MCF7 breast
HT29 colon = test system: HT29 colon
HL-60(TB) leukemia = test system: HL-60(TB) leukemia
MOLT-4 leukemia = test system: MOLT-4 leukemia
SF-295 CNS = test system: SF-295 CNS
M14 melanoma = test system: M14 melanoma
HOP-92 NSCLC = test system: HOP-92 NSCLC
NCI-H460 lung = test system: NCI-H460 lung
MALME-3M melanoma = test system: MALME-3M melanoma
SNB-19 CNS = test system: SNB-19 CNS
HCC-2998 colon = test system: HCC-2998 colon
K-562 leukemia = test system: K-562 leukemia
SR leukemia = test system: SR leukemia

Row | SMILES | TGI (A498 renal) | TGI (CAKI-1 renal) | TGI (U251 CNS) | TGI (MDA-MB-231 breast) | TGI (786-0 renal) | TGI (OVCAR-8 ovarian) | TGI (MCF7 breast) | TGI (HT29 colon) | TGI (HL-60(TB) leukemia) | TGI (MOLT-4 leukemia) | TGI (SF-295 CNS) | TGI (M14 melanoma) | TGI (HOP-92 NSCLC) | TGI (NCI-H460 lung) | TGI (MALME-3M melanoma) | TGI (SNB-19 CNS) | TGI (HCC-2998 colon) | TGI (K-562 leukemia) | TGI (SR leukemia)
1 | COc1c2cc([N+](=O)[O-])cc1CN(C(=O)C(F)(F)F)CCOCCN(C(=O)C(F)(F)F)C2 | > 100 µM | > 100 µM | > 100 µM | > 100 µM | > 100 µM | > 100 µM | > 100 µM | > 100 µM | > 100 µM | > 100 µM | > 100 µM | > 100 µM | > 100 µM | > 100 µM | > 100 µM | > 100 µM |  |  | 
2 | Nc1n[nH]c2c(C(=O)Nc3ccc(Cl)cc3)c(N)n(N)c(=O)c12 | > 100 µM | > 100 µM | > 100 µM | > 100 µM | > 100 µM | > 100 µM | > 100 µM | > 100 µM | > 100 µM | > 100 µM |  | > 100 µM |  | > 100 µM | > 100 µM | > 100 µM | > 100 µM | > 100 µM | > 100 µM
3 | C=CCc1oc(C)nc1CCCC | > 100 µM | > 100 µM | > 100 µM | > 100 µM | > 100 µM | > 100 µM | > 100 µM | > 100 µM | > 100 µM | > 100 µM | > 100 µM | > 100 µM | > 100 µM | > 100 µM | > 100 µM | > 100 µM | > 100 µM | > 100 µM | 
4 | O=C(/C=C/c1ccccc1)c1cc(C(=O)/C=C/c2ccccc2)c(O)cc1O | 90.7 µM | > 100 µM |  |  | > 100 µM | > 100 µM | > 100 µM | > 100 µM | > 100 µM | > 100 µM |  | > 100 µM | > 100 µM | > 100 µM | > 100 µM | > 100 µM | > 100 µM |  | 
5 | COc1cccc(/C=C2\SC(=S)N(/C=C3\C(=O)Oc4ccccc4C3=O)C2=O)c1O | 48 µM | > 100 µM | > 100 µM | > 100 µM | > 100 µM | > 100 µM | > 100 µM | > 100 µM | > 100 µM | > 100 µM | > 100 µM | > 100 µM |  | > 100 µM | > 100 µM | > 100 µM | 87 µM | > 100 µM | > 100 µM
6 | C=C1CCC2[C@](C)(CCC[C@]2(C)C(=O)O)[C@@H]1CCc1ccoc1 (some centres not stated) | > 100 µM | > 100 µM |  | > 100 µM | > 100 µM |  |  | 55.7 µM | 71.2 µM | > 100 µM | > 100 µM | > 100 µM |  | > 100 µM | > 100 µM | > 100 µM | > 100 µM | > 100 µM | 70.4 µM
7 | CCCCCCCCCC(=O)NC(CCC(=O)N(CCNC(=O)c1nc(-c2ccccc2)oc1-c1ccccc1)Cc1ccccc1)C(=O)O (configuration not stated) | 39.7 µM | 31.2 µM | 35.8 µM | 40.6 µM | 32 µM | 35.5 µM |  | 32.3 µM |  | > 100 µM | 32.8 µM | 28.3 µM | 34.8 µM | > 100 µM | 34.8 µM | 31.8 µM |  |  | 

Reference: PubChem BioAssay (NCI)
